This note sets out measurements from publication doi:10.1101/586255v1 (biorxiv, 2019).

In general, IC50 refers to the concentration at which inhibition is half-maximal. A low value points to greater potency.

Where two headings read alike, the source gives them in different places.

The target in assay [1] is T1, SaSerRS (Staphylococcus aureus, UniProt P95689). Description: continuous coupled spectrophotometric assay of adenylate formation. The class given is biochemical.
In assay [2] the target is T2, EcSerRS (Escherichia coli, UniProt P0A8L1). The assay is described as above. In kind it is biochemical.
Assay [3] deals with T3, HsSerRS (Homo sapiens, UniProt P49591). Description: biochemical.
The target of assay [4] is T3, HsSerRS. The class given is biochemical.
In assay [5] the target is T2, EcSerRS. Put plainly: biochemical.
Assay [6] deals with T1, SaSerRS. Put plainly: biochemical.
Where [7] appears, read: pH 7.6, 37 °C, 10 mM MgCl2, 10% DMSO.

T2 sequence (P0A8L1 whole entry): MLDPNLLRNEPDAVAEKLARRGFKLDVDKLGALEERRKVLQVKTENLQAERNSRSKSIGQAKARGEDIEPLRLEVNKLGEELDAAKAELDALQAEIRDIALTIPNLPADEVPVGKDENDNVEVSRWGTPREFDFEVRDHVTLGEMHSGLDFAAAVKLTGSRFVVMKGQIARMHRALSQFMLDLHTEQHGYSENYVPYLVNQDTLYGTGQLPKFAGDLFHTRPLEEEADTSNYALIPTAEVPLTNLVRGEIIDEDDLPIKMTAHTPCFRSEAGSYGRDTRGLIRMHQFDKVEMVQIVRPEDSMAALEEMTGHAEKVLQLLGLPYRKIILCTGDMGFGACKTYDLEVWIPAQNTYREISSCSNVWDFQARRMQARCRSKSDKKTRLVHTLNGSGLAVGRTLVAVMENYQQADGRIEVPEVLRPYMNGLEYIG
T1 sequence (P95689 whole entry): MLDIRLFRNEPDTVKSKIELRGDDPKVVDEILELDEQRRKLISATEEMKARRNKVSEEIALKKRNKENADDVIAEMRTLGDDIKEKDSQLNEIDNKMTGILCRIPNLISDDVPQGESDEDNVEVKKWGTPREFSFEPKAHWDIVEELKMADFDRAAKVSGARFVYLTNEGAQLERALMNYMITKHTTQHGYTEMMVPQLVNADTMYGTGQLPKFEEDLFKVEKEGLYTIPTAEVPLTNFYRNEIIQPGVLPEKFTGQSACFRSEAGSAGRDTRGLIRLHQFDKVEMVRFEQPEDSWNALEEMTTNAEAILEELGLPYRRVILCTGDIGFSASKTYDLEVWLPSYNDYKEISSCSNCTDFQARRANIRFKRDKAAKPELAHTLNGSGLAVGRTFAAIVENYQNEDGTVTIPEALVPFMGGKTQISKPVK
T3 sequence (P49591 whole entry, looked up): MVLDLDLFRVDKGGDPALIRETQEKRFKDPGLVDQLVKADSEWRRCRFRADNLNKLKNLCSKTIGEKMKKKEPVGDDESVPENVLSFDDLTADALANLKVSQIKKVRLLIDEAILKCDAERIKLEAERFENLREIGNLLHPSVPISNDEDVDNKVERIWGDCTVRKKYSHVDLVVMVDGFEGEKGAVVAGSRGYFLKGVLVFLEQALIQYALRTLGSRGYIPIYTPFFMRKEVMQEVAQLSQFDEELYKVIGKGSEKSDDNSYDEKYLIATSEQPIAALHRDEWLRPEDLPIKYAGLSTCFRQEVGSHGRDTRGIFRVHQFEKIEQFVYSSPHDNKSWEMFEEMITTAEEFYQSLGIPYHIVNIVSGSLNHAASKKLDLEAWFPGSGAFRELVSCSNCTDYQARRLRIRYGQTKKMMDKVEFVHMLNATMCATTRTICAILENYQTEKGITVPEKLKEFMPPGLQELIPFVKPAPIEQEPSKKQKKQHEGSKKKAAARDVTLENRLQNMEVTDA

With `Nc1nc(-c2cccnc2)nc2c1ncn2[C@@H]1O[C@H](COS(=O)(=O)NC(=O)[C@@H](N)CO)[C@@H](O)[C@H]1O` [compound 8], the half-maximal inhibitory concentration (IC50) against SaSerRS [1] (setting [7]) came to 6.34 ± 0.71 µM; against EcSerRS [2] (setting [7]) it was 6.65 ± 0.64 µM.

As for `C[C@@H](O)[C@H](N)C(=O)NS(=O)(=O)OC[C@H]1O[C@@H](n2cnc3c(N)ncnc32)[C@H](O)[C@@H]1O` [compound 10, ThrSA], the IC50 against SaSerRS [1] is 231 µM; against EcSerRS [2] it was 285 µM; at HsSerRS [3], above 1000 µM.

Regarding `Nc1nc(-c2ccsc2)nc2c1ncn2[C@@H]1O[C@H](COS(=O)(=O)NC(=O)[C@@H](N)CO)[C@@H](O)[C@H]1O` [compound 7], the IC50 on SaSerRS [1] (setting [7]) stood at 1.24 ± 0.12 µM; on EcSerRS [2] (setting [7]) it was 1.44 ± 0.09 µM.

For `Nc1ncnc2c1ncn2[C@@H]1O[C@H](COS(=O)(=O)NC(=O)[C@@H](N)CO)[C@@H](O)[C@H]1O` [compound 1, SerSA], the IC50 against SaSerRS [1] (pH 7.6, 37 °C, 10 mM MgCl2, 10% DMSO, error as printed is larger than the value) is 0.23 ± 0.49 µM; on EcSerRS [2] (setting [7]), 0.21 ± 0.03 µM; at HsSerRS [4], 2.17 ± 0.21 µM.

For `C/C=C/c1nc(N)c2ncn([C@@H]3O[C@H](COS(=O)(=O)NC(=O)[C@@H](N)CO)[C@@H](O)[C@H]3O)c2n1` [compound 5], the IC50 against SaSerRS [1] (setting [7]) is 3.46 ± 0.47 µM; on EcSerRS [2] (setting [7]) it was 9.38 ± 0.7 µM.

Regarding `C[C@H](N)C(=O)NS(=O)(=O)OC[C@H]1O[C@@H](n2cnc3c(N)ncnc32)[C@H](O)[C@@H]1O` [compound 9, AlaSA], the IC50 on EcSerRS [5], at SaSerRS [6] and at HsSerRS [3] was above 1000 µM throughout.

In the case of `Nc1nc(I)nc2c1ncn2[C@@H]1O[C@H](COS(=O)(=O)NC(=O)[C@@H](N)CO)[C@@H](O)[C@H]1O` [compound 3], the 50% inhibitory concentration (IC50) was 0.38 ± 0.04 µM against SaSerRS [1] (setting [7]) and 1.36 ± 0.12 µM at EcSerRS [2] (setting [7]).

As to `Nc1nc(Cl)nc2c1ncn2[C@@H]1O[C@H](COS(=O)(=O)NC(=O)[C@@H](N)CO)[C@@H](O)[C@H]1O` [compound 2], the IC50 on SaSerRS [1] (setting [7]) was 0.26 ± 0.03 µM; on EcSerRS [2] (setting [7]), 0.45 ± 0.05 µM.

On to `Nc1nc(-c2ccco2)nc2c1ncn2[C@@H]1O[C@H](COS(=O)(=O)NC(=O)[C@@H](N)CO)[C@@H](O)[C@H]1O` [compound 6], for which the IC50 against SaSerRS [1] (setting [7]) stood at 32.4 ± 3.56 µM; at EcSerRS [2] (setting [7]), 36.2 ± 2.41 µM.

For the compound `Nc1nc(-c2ccccc2)nc2c1ncn2[C@@H]1O[C@H](COS(=O)(=O)NC(=O)[C@@H](N)CO)[C@@H](O)[C@H]1O` [compound 4], the IC50 at SaSerRS [1] (setting [7]) is 52.7 ± 4.81 µM; on EcSerRS [2] (setting [7]), 17.7 ± 1.42 µM.
